Like-named read-outs stand apart in the source and are kept apart here.
Legend:
[1] = Multi-compound pharmacokinetics of ZJTSD in rat serum, semi-quantitative UPLC-Q/TOF-MS (peak area ratio versus time, non-compartmental); details: for pharmacokinetic behavior compared with other prototype compounds and metabolites (in words): non-compartmental analysis; for AUC (in words): peak area ratio versus time
Description: (§1) Thirty male Sprague–Dawley rats (200 ± 20 g) were purchased from the Nanjing Qinglongshan Experimental Animal Center (Nanjing, China). […] All rats were divided randomly into two groups: ZJTSD-dosed group (n = 27) and control group (n = 3). The ZJTSD-dosed group was given the ZJTSD solution by gavage (i.g.) at a dosage of 1 mL/100 g body weight of rats, and the control group was given 0.9% normal saline at the same dose, twice a day for a week. After the last administration, the blood was collected from the hepatic portal vein at 15 min, 30 min, 1 h, 2 h, 4 h, 6 h, 8 h, 12 h, and 24 h, and 3 rats were taken at each time point.
(§2) The blood samples of rats were centrifuged at 4,000 rpm for 10 min to obtain the serum. The serum sample (1 mL) was processed with a 3-fold volume using methanol for protein precipitation, with epicoprostanol serving as the internal standard (digoxin and clarithromycin). After vortexing for 3 min, the mixture was centrifuged at 18,000 rpm for 10 min. Subsequently, the supernatant was evaporated at 45°C using a vacuum concentrator. After evaporating the solvent, 150 μL of methanol/water (1:1, v/v) was added, vortexed, sonicated, and then centrifuged at 18,000 rpm for 10 min at 4°C. The resulting supernatant was used for further analysis.
(§3) Liquid chromatographic separation was performed using an AB SCIEX LC™ 2.0 system (AB SCIEX, United States) fitted with an Acquity UPLC BEH C18 column (100 mm × 2.1 mm, 1.7 μm; Ireland). The mobile phases in negative and positive ion modes consisted of 0.1% FA aqueous solution (A) and acetonitrile containing 0.1% FA (B). The program of the elution gradient was set as follows: 0∼5 min, 2%∼35 %B; 5∼7 min, 35%∼50%; 7∼10 min, 50%∼70%; 10∼15 min, 70%∼90 %B; 15∼18 min, 90%∼90 %B; 18∼18.5 min, 90%∼2 %B; and 18.5∼20 min, 2%∼2 %B. The injection volume was 3 µL. The flow rate and the column temperature were set at 0.3 mL/min and 40°C, respectively.
(§4) The mass spectrometry analysis was performed on a SCIEX ZenoTOF™ 7600 system (AB SCIEX, United States), which was calibrated in the high-sensitivity mode for every 10 samples. Spectra were acquired in the TOF/MS-IDA-TOF MS/MS mode with the ESI source operating in positive and negative ion modes. MS parameters were set as follows: ionization source, ESI; spray voltage, 5,500 kV/–4,500 kV; collision energy, 40 V/–40 V; declustering potential, 80 V/–80 V; ion source temperature, 550°C; and scan range, 100–1250 m/z. Data acquisition and processing were performed using SCIEX OS 2.2 and PeakView 2.2.
(§5) A semi-quantitative method was adopted based on the correction peak area versus time ([Wang et al., 2011]; [Lin et al., 2019]). The mean serum time-course profile of pharmacokinetics based on the peak area ratio versus time was plotted using Origin 2018. The kinetic analysis of the peak area ratio (×1,000)–time curve was calculated using Phoenix WinNonlin 8.1 (Phoenix, American) software and illustrated.

[2] = rat, in vivo, po
Description: as §1, §2, §3, §4, §5

[3] = male, Sprague-Dawley, rat, serum (hepatic portal vein blood), po, 1 mL/100 g body weight, t1/2, metabolites of ZJTSD in rat serum, mean±SD, n=3
[4] = metabolites of ZJTSD in rat serum, mean±SD, n=3, in h
[5] = male, Sprague-Dawley, rat, serum (hepatic portal vein blood), po, 1 mL/100 g body weight
[6] = male, Sprague-Dawley, rat, serum (hepatic portal vein blood), po, 1 mL/100 g body weight, t1/2, prototype compounds of ZJTSD absorbed into rat serum, mean±SD, n=3
[7] = prototype compounds of ZJTSD absorbed into rat serum, mean±SD, n=3, in h
[8] = male, Sprague-Dawley, rat, serum (hepatic portal vein blood), po, 1 mL/100 g body weight, elimination half-life (t1/2), rat hepatic portal vein serum after oral ZJTSD, semi-quantitative peak area ratio

| Structure (SMILES) | MRT last [1, 5] | Tmax [1, 5] | half-life [1, 6] | further results |
| --- | --- | --- | --- | --- |
| O=C(CCc1ccc(O)cc1)c1ccc(O)cc1O [M11] | – | – | – | half-life [1, 3]: 421 ± 137 min |
| O=C1C[C@@H](c2ccc(O)cc2)Oc2cc(O)ccc21 [M18] | – | – | – | detection in serum / absorbed form [2]: detected in vivo |
| Cc1ccc2c(c1)C(=O)c1cc(OS(=O)(=O)O)ccc1C2=O [M26] | – | – | – | AUC (in words) [2]: greater; Tmax [2]: ≤ 3.5 h; elimination half-life (t1/2) [2]: less than 4 h; pharmacokinetic behavior compared with other prototype compounds and metabolites (in words) [2]: better pharmacokinetic behavior |
| Cc1cc(O)c2c(c1)C(=O)c1ccccc1C2=O [M63] | – | – | – | half-life [1, 3]: 326 ± 157 min |
| CC1CCC2(C(=O)O)CCC3(C)C(=CCC4C5(C=O)CC(O)C(O)C(C)(C)C5CCC43C)C2C1(C)O (stereo not drawn) [M77] | – | – | – | half-life [1, 3]: 649 ± 283 min |
| OC1COCC1O (stereo not drawn) [M87] | – | – | – | MRT(0→t) [1, 4]: 9.59±1.35; Tmax [1, 4]: 1.17±0.76; t1/2 [1, 4]: 17.68±16.89 |
| COC(=O)c1ccc(O)cc1 [M89] | – | – | – | MRT(0→t) [1, 4]: 5.35±0.92; Tmax [1, 4]: 3.00±1.73 |
| O=CCC(O)(CC(=O)O)C(=O)O (stereo not drawn) [M90] | – | – | – | MRT(0→t) [1, 4]: 7.25±1.46; Tmax [1, 4]: 1.08±0.88; t1/2 [1, 4]: 7.50±1.85; Tmax ([1]; rat hepatic portal vein serum after oral ZJTSD twice a day for a week, semi-quantitative peak area ratio): ≤ 3.5 h; elimination half-life (t1/2) ([1]; rat hepatic portal vein serum after oral ZJTSD, semi-quantitative peak area ratio): > 7.5 h; time to peak (in words) ([1]; rat serum after oral ZJTSD): faster time to peak; pharmacokinetic behavior compared with other prototype compounds and metabolites (in words) ([1]; rat serum after oral ZJTSD): better pharmacokinetic behavior; AUC (in words) ([1]; rat serum after oral ZJTSD): greater |
| O=C(O)/C=C/c1ccc(O)cc1 [M91] | – | – | – | MRT(0→t) [1, 4]: 3.97±0.59; Tmax [1, 4]: 1.58±2.10; t1/2 [1, 4]: 3.23±0.95 |
| Cc1cc(=O)c2c(C)cc(O)cc2o1 [P1, 2,5-Dimethyl-7-hydroxychromone] | 3.43 ± 0.76 h | 0.67 ± 0.29 h | 162 ± 8.4 min | level of exposure in the blood (in words) ([1]; rat serum after oral ZJTSD): higher level of exposure; pharmacokinetic behavior compared with other prototype compounds and metabolites (in words) ([1]; rat serum after oral ZJTSD): better pharmacokinetic behavior |
| Cc1cc(O)cc2oc(CC(C)O)cc(=O)c12 (stereo not drawn) [P2, 7-Hydroxy-2-(2-hydroxypropyl)-5-methylchromen-4-one] | 3.45 ± 0.58 h | 0.67 ± 0.29 h | 130 ± 7.2 min | level of exposure in the blood (in words) ([1]; rat serum after oral ZJTSD): higher level of exposure; pharmacokinetic behavior compared with other prototype compounds and metabolites (in words) ([1]; rat serum after oral ZJTSD): better pharmacokinetic behavior |
| COc1c(-c2ccccc2)oc2cc(O)cc(O)c2c1=O [P3, 3-Methoxy-5,7-dihydroxyflavone] | 4.8 ± 0.38 h | 1.83 ± 1.89 h | 242 ± 115 min | – |
| Cc1cc(=O)c2c(CC(=O)O)cc(O)cc2o1 [P4, 2-Methyl-5-carboxymethyl-7-hydroxychromone] | 5.29 ± 0.3 h | 1.67 ± 2.02 h | 188 ± 51.6 min | – |
| CC(=O)Cc1cc(O)cc2oc(C)cc(=O)c12 [P5, 2-Methyl-5-acetonyl-7-hydroxychromone] | 4.23 ± 0.55 h | 0.67 ± 0.29 h | 185 ± 11.4 min | – |
| COc1cc(C)c2c(=O)cc(C)oc2c1 [P6, 2,5-Dimethyl-7-methoxychromone] | 12.1 ± 0.02 h | 4.75 ± 4.02 h | – | – |
| COc1cc(-c2coc3cc(O)ccc3c2=O)ccc1O [P10, 7,4'-Dihydroxy-3'-methoxyisoflavone] | 10.8 ± 0.72 h | 2.08 ± 1.88 h | 4040 ± 264 min | – |
| Cc1cc2c(cc1O)C(=O)c1ccccc1C2=O [P11, 2-Methyl-3-hydroxyanthraquinone] | 3.23 ± 0.59 h | 0.67 ± 0.29 h | 257 ± 163 min | level of exposure in the blood (in words) ([1]; rat serum after oral ZJTSD): higher level of exposure; pharmacokinetic behavior compared with other prototype compounds and metabolites (in words) ([1]; rat serum after oral ZJTSD): better pharmacokinetic behavior |
| COc1c(O)ccc2c1C(=O)c1ccccc1C2=O [P14, 2-Hydroxy-1-methoxyanthraquinone] | 4.24 ± 0.57 h | 0.67 ± 0.29 h | 210 ± 124 min | level of exposure in the blood (in words) ([1]; rat serum after oral ZJTSD): higher level of exposure; pharmacokinetic behavior compared with other prototype compounds and metabolites (in words) ([1]; rat serum after oral ZJTSD): better pharmacokinetic behavior |
| O=C1c2ccccc2C(=O)c2cc(CO)c(O)cc21 [P15, 2-Hydroxy-3-hydroxymethylanthraquinone] | 4.81 ± 0.31 h | 1.67 ± 2.02 h | – | – |
| O=C1c2cccc(O)c2C(=O)c2c(O)cc(CO)cc21 [P17, Aloe-emodin] | 5.2 ± 3.03 h | 4.17 ± 3.75 h | 104 min | detection in serum / absorbed form ([1]; rat serum after oral ZJTSD): absorbed as prototype compounds |
| O=C(O)c1cc(O)c2c(c1)C(=O)c1cccc(O)c1C2=O [P18, Rhein] | 3.55 ± 0.57 h | 1.67 ± 2.02 h | 282 ± 54 min | detection in serum / absorbed form ([1]; rat serum after oral ZJTSD): absorbed as prototype compounds |

| Structure (SMILES) | MRT last [1, 5] | Tmax [1, 5] | half-life [1, 6] | further results |
| --- | --- | --- | --- | --- |
| COc1c(O)c(C)cc2c1C(=O)c1ccc(O)cc1C2=O [P21, 2,6-Dihydroxy-1-methoxy-3-methylanthraquinone] | 4.27 ± 0.55 h | 2.5 ± 3.04 h | 207 ± 86.4 min | – |
| N[C@@H](Cc1c[nH]c2ccccc12)C(=O)O [P23, Tryptophan] | 12.4 ± 0.14 h | 1.08 ± 0.88 h | – | – |
| N[C@@H](Cc1c[nH]cn1)C(=O)O [P24, Histidine] | 9.9 ± 0.35 h | 2.75 ± 2.95 h | 1260 ± 613 min | – |
| CSCC[C@H](N)C(=O)O [P25, L-Methionine] | 12.5 ± 1.36 h | 2.17 ± 3.32 h | – | – |
| O=C(O)[C@@H]1CCCN1 [P26, Proline] | 11.1 ± 0.44 h | 0.5 h | 2830 ± 2150 min | – |
| COC(=O)C1CCC(=O)N1 (stereo not drawn) [P33, 5-Oxo-pyrrolidine-2-carboxylic acid methyl ester] | 13.9 ± 1.35 h | 14 ± 9.17 h | – | – |
| O=C1CCCn2c(CO)ccc21 [P34, Polygonatine A] | – | – | – | MRT(0→t) [1, 7]: 3.96±0.32; t1/2 [1, 7]: 3.76±1.03 |
| C[N+](C)(C)CC(=O)O [P35, Betaine] | 10.8 ± 0.64 h | 6.67 ± 4.62 h | 1450 ± 868 min | – |
| O=C(O)/C=C/c1ccccc1 [P36, Cinnamic acid] | 5.15 ± 0.25 h | 1.58 ± 2.1 h | 1550 ± 1590 min | – |
| O=C(O)C=Cc1ccc(O)cc1 [P37, p-Coumaric acid] | 3.97 ± 0.59 h | 1.58 ± 2.1 h | 194 ± 57 min | level of exposure in the blood (in words) ([1]; rat serum after oral ZJTSD): higher level of exposure; pharmacokinetic behavior compared with other prototype compounds and metabolites (in words) ([1]; rat serum after oral ZJTSD): better pharmacokinetic behavior |
| COc1cc2ccc(=O)oc2cc1O [P38, Scopoletin] | 4.36 ± 1.52 h | 0.5 h | 286 ± 85.8 min | – |
| O=c1ccc2cc(O)c(O)cc2o1 [P39, Esculetin] | 4.92 ± 0.8 h | 0.33 ± 0.14 h | 264 ± 234 min | – |
| O=C(O)CC(O)(CC(=O)O)C(=O)O [P40, Citric acid] | 9.56 ± 1.76 h | 3.33 ± 1.16 h | 1480 ± 1420 min | MRT [1, 5]: 9.56 h; half-life [1, 8]: 1260 min; AUC (in words) ([1]; rat serum after oral ZJTSD): largest |
| O=C(O)c1ccc(O)cc1 [P41, p-Hydroxybenzoic acid] | 9.15 ± 0.95 h | 2.75 ± 2.17 h | 1170 ± 174 min | pharmacokinetic behavior compared with other prototype compounds and metabolites (in words) ([1]; rat serum after oral ZJTSD): better pharmacokinetic behavior |
| C=Cc1ccc(O)c(OC)c1 [P42, 4-Vinyl-2-methoxyphenol] | 10.2 ± 0.64 h | 10.7 ± 2.31 h | – | – |
| CCCCCCCCCCCCCCCCOC[C@@H](O)COP(=O)([O-])OCC[N+](C)(C)C [P44, 1-O-Hexadecyl-sn-glycero-3-phosphocholine] | 11.9 ± 0.91 h | 0.58 ± 0.38 h | 1990 ± 796 min | – |
| CCCCCCCCCCCCCCCCCC(=O)OC[C@@H](O)COP(=O)([O-])OCC[N+](C)(C)C [P45, 1-O-Octadecanoyl-sn-glycero-3-phosphocholine] | 9.91 ± 0.56 h | 2 h | 1310 ± 409 min | MRT [1, 5]: 9.91 h; half-life [1, 8]: 1260 min; pharmacokinetic behavior compared with other prototype compounds and metabolites (in words) ([1]; rat serum after oral ZJTSD): better pharmacokinetic behavior |
| O=Cc1c[nH]c2ccccc12 [P46, Indole-3-carbaldehyde] | 12.7 ± 0.3 h | 12.1 ± 11.9 h | – | – |
| O=C1CCCCN1 [P47, 2-Piperidone] | 11.8 ± 0.21 h | 12 h | – | – |
| CC(=O)/C=C/c1ccc(CO)o1 [P51, (E)-4-[5-(Hydroxymethyl)-2-furanyl]-3-butene-2-one] | 4.2 ± 0.25 h | 4.67 ± 1.16 h | – | – |

— PMC10957775, “Integrated chemical characterization, metabolite profiling, and pharmacokinetics analysis of Zhijun Tangshen Decoction by UPLC-Q/TOF-MS” (Frontiers in Pharmacology, 2024)
